Source: publication PMC9057582, “HIF inhibitor 32-134D eradicates murine hepatocellular carcinoma in combination with anti-PD1 therapy” (The Journal of Clinical Investigation, 2022)

Key:
[1] = system: hypoxia-induced genes in Hep3B cells; assay: RNA sequencing of Hep3B cells; assay type: cell-based, human; conditions: 5 μM, 1% O2, 24 hours
Protocol: RNA sequencing (RNA-seq) was performed on 3 biological replicates of Hep3B cells exposed for 24 hours to vehicle at 20% O2, vehicle at 1% O2, or 5 μM 32-134D at 1% O2. […] Overall, 32-134D inhibited the expression of 4,689 genes, of which the 3,326 hypoxia-induced genes represented 71% of the total.
RNA was extracted using TRIzol Reagent. Quantitative real-time PCR was conducted using SYBR Green PCR Master Mix and reactions were run using a Bio-Rad thermal cycler. Primer sequences and reagent sources are listed in Supplemental Table 5. The mRNA expression of target genes was normalized to the expression of 18S rRNA and the fold change (FC) was calculated based on the threshold cycle (Ct) as FC = 2^–Δ(ΔCt), where ΔCt = Cttarget gene – Ct18S rRNA and Δ(ΔCt) = ΔCttreatment – ΔCtcontrol. For RNA-seq, total RNA was isolated and treated with DNase (Qiagen). […] An automated data analysis pipeline run in the Genialis platform consisted of the following: Sequence quality checks were performed on raw and trimmed reads with FastQC. Bbduk was used to trim adapters and filter out poor quality reads. Trimmed reads were then mapped to the STAR index (ENSEMBL 100) reference genome using the STAR ([93]) aligner. Gene expression levels were quantified with featureCounts ([94]), and differential gene expression analyses were performed with DESeq2 ([95]). […]

Hepa1-6 mouse HCC cells = assay: RT-qPCR of hypoxia-induced gene expression in Hepa1-6 cells; assay type: cell-based; conditions: Hepa1-6, 1% O2, 24 hours
Protocol: Next, we analyzed Hepa1-6, which is a mouse HCC cell line. […] CXCL1, IL-6, and IL-10 were not induced by hypoxia, whereas hypoxia-induced IL-22 expression was inhibited by 32-134D (P < 0.05; Figure 3C).
Figure 3 Effect of 32-134D treatment on hypoxia-induced gene expression in Hepa1-6 cells. (A–C) Cells were exposed to 20% O2 and vehicle (white bars), 1% O2 and vehicle (blue bars), or 1% O2 and 32-134D (red bars) for 24 hours and mRNAs were quantified by RT-qPCR and normalized to white (mean ± SEM, n = 4). *P < 0.05 versus white; ^#P < 0.05 versus blue (ANOVA with Bonferroni’s post hoc test).
RNA was extracted using TRIzol Reagent. Quantitative real-time PCR was conducted using SYBR Green PCR Master Mix and reactions were run using a Bio-Rad thermal cycler. Primer sequences and reagent sources are listed in Supplemental Table 5. The mRNA expression of target genes was normalized to the expression of 18S rRNA and the fold change (FC) was calculated based on the threshold cycle (Ct) as FC = 2^–Δ(ΔCt), where ΔCt = Cttarget gene – Ct18S rRNA and Δ(ΔCt) = ΔCttreatment – ΔCtcontrol. For RNA-seq, total RNA was isolated and treated with DNase (Qiagen). The JHU GRCF High-Throughput Sequencing facility prepared libraries and performed RNA-seq. The RNA-seq data were processed and interpreted using Genialis Expressions software (https://www.genialis.com/expressions/). An automated data analysis pipeline run in the Genialis platform consisted of the following: Sequence quality checks were performed on raw and trimmed reads with FastQC. Bbduk was used to trim adapters and filter out poor quality reads. Trimmed reads were then mapped to the STAR index (ENSEMBL 100) reference genome using the STAR ([93]) aligner. Gene expression levels were quantified with featureCounts ([94]), and differential gene expression analyses were performed with DESeq2 ([95]). […] Differential expression was determined with an FDR of less than 0.05 and mRNA FC of greater than 1.5 to identify hypoxia-induced genes and genes inhibited by 32-134D. Data used in this study have been deposited in the NCBI Gene Expression Omnibus database (GEO GSE195997).
Supplemental Figure 7. Effect of 32-134D on gene expression in Hepa1-6 cells. Cells were exposed to 20% O2 and vehicle (white bar) or 1% O2 and vehicle (blue bar), 2.5-10 […]
for 24 hours and mRNAs were quantified by RT-qPCR and normalized to white (mean + SEM, n = 4). *p < 0.05 vs white; #p < 0.05 vs blue (ANOVA with Bonferroni post-test).
(1 picture or pasted object on this page, not shown here)

Hep3B tumor xenograft = assay: Analysis of Hep3B xenograft tumors (immunoblot, RT-qPCR, ELISA, CD31 immunohistochemistry); assay type: in vivo, nude (nu/nu) mice
Text: Figure 2 Effect of 32-134D on Hep3B tumor xenograft growth and vascularization. (A) Female nude mice received a subcutaneous injection of […] Hep3B cells. When tumors reached a volume of 150 mm^3 (designated treatment day 1), the mice were randomized to receive a daily intraperitoneal injection of 32-134D at a dose of 0 (blue), 20 (black), 40 (red), or 80 (green) mg/kg. Data are presented as mean tumor volume (± SEM; n = 4 each). **P < 0.01, ***P < 0.001 (ANOVA with Bonferroni’s post hoc test). (B) Gross pathology of tumors harvested from vehicle-treated (top panel) and 32-134D–treated (bottom panel) mice. (C) Nuclear extracts prepared from tumors were assayed by immunoblotting using antibodies against the indicated proteins. (D) Total RNA was isolated from tumor tissue and analyzed by RT-qPCR using primers specific for the indicated mRNAs and results (mean ± SEM, n = 4) were normalized to the mean value for tumors from vehicle-treated mice. (E) ELISA for the indicated proteins was performed using aliquots of tumor lysates (mean ± SEM; n = 3–4 tumors each). *P < 0.05 (Mann-Whitney test). (F) Formalin-fixed and paraffin-embedded tumor sections were analyzed by immunohistochemistry using an antibody against CD31 to identify vascular endothelial cells. Scale bar: 100 μm. The total CD31^+ vessel area per field was quantified using ImageJ (mean ± SEM; n = 4 tumors with 5 sections per tumor). *P < 0.05 (Student’s t test).
Intratumoral HIF-1β protein levels were not affected by treatment with 32-134D (Supplemental Figure 5E).
Female nude mice (NCI Athymic NCr-nu/nu) and male C57L mice were purchased from Charles River and The Jackson Laboratory, respectively. Hep3B (8 × 10^6) and Hepa1-6 (1 × 10^7) cells were resuspended in PBS and Matrigel (1:1, vol/vol) and implanted subcutaneously in 6- to 8-week-old mice, and tumor volume was calculated as V = abc × 0.52. For Hep3B tumor studies, once tumors reached 100 to 150 mm^3, mice were randomized into groups to receive daily intraperitoneal injection of either 32-134D or vehicle only (20% PEG-400, 10% Cremophor EL, 10% ethanol in PBS). For Hepa1-6 tumors, mice were randomized to receive treatment once tumors became palpable (tumor eradication experiment) or reached a volume of 200 mm^3 (harvesting of tumors for flow cytometry and analysis of RNA and protein expression). Tumors were harvested 4 hours after the last treatment (see Supplemental Table 6 for reagent sources).
Tumor samples were fixed in 10% formalin in phosphate buffer for 24 hours and placed in PBS the following day for paraffin embedding and sectioning. Anti-CD31 immunohistochemical staining, hematoxylin and eosin counterstaining, and whole-slide scanning were performed by NDB Bio (www.ndbbio.com).
Tumors were homogenized in ice-cold PBS supplemented with 1% Triton X-100 and PIs, centrifuged at 10,000g for 20 minutes to pellet debris, and the supernatant was collected for ELISA using commercial kits (Supplemental Table 6). Optical density was obtained at 450 nm (corrected for readings at 570 nm) using the VICTOR Nivo plate reader. Sample protein concentration was calculated by linear regression from a standard curve.

Brc1ccc2c(-c3csc(-c4c[nH]c5c(Br)cccc45)n3)c[nH]c2c1 [Compound 32-134D]
total number of genes whose expression was inhibited [1]: 4,689 genes | number of hypoxia-induced genes whose expression was inhibited ([1]; of 3,849 hypoxia-induced mRNAs): 3,326 genes | RPL13A mRNA expression (Hepa1-6 mouse HCC cells): no effect | hypoxic induction of PDL1 mRNA (Hepa1-6 mouse HCC cells): induced in vehicle-treated but not in 32-134D–treated cells | hypoxia-induced ANGPTL4, EPO, PGF, and VEGFA mRNA expression (Hepa1-6 mouse HCC cells; 2.5-10 µM): significant dose-dependent inhibition | hypoxia-induced IL-22 expression (Hepa1-6 mouse HCC cells; P < 0.05): inhibited | hypoxia-induced expression of SLC2A1, LDHA, ENTPD1, and CA9 mRNA (Hepa1-6 mouse HCC cells; P < 0.05): inhibited | hypoxic induction of B7H4 and TIM3 mRNA (Hepa1-6 mouse HCC cells; P < 0.05): hypoxia-induced expression in vehicle-treated but not in 32-134D–treated cells | VEGFA, EPO, SDF-1α and SCF protein in tumor lysates (Hep3B tumor xenograft; ELISA, P < 0.05): significantly decreased expression | tumor mRNA expression of ANGPTL4, EPO, PGF, CD73, PDL1, VEGFA, SDF-1, SCF (Hep3B tumor xenograft; RT-qPCR, P < 0.05): significant decrease | intratumoral HIF-1β protein levels (Hep3B tumor xenograft; immunoblot): not affected | intratumoral HIF-1α and HIF-2α protein expression (Hep3B tumor xenograft; immunoblot of tumor lysates): almost complete loss | CD31+ blood vessel area in tumors (Hep3B tumor xenograft; immunohistochemistry, P < 0.05): significantly decreased blood vessel area
